Experiments:
CAL-85-1 [1] = experiment: normalised viability (% of control), CellTiter-Blue; higher = more viable cells (about 100 = DMSO control); details: incubation time: 72 h
In short: (§1)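 Each entry is normalised viability at a single listed concentration within a series. It comes from breast cancer cell lines incubated 72 h with compound in 384-well plates, then measured with CellTiter-Blue fluorescence at 560/590 nm. Every plate was normalised between vehicle (100) and a positive kill control (0).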

CAL-148 [2] = experiment: as above; details: incubation time: 72 h
In short: as §1

HDQ-P1 [3] = experiment: as above; details: incubation time: 72 h
In short: as §1

DU-4475 [4] = experiment: as above; details: incubation time: 72 h
In short: as §1

MDA-MB-453 [5] = experiment: as above; details: incubation time: 72 h
In short: as §1

CAL-51 [6] = experiment: as above; details: incubation time: 72 h
In short: as §1

HDQ-P1 [7] = details: 72 h
Procedure: (§2)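 Drug sensitivity and resistance testing (DSRT) of breast cancer cell lines in 384-well plates, 5 concentrations in 10-fold dilutions over a compound-specific 10,000-fold range. After 72 h, cytotoxicity was read by CellTox Green fluorescence and viability by CellTiter-Glo luminescence (multiplexed), normalised to DMSO and benzethonium chloride controls. EC50 is the inflection point of the fitted dose-response curve (bottom asymptote free, so it can be relative for partial curves) and is censored at the highest tested concentration. Rows with DSS 0 (no meaningful response) were excluded.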

CAL-120 = details: 72 h
In short: (§3)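 A 20 µl suspension of breast cancer cells was placed in 384-well plates that already contained compound at 5 concentrations in 10-fold steps across a compound-specific 10,000-fold range, and the plates were left for 72 h. CellTox Green fluorescence at 485/520 nm gave cell death, and CellTiter-Glo luminescence, read after 10 min at room temperature, gave viability. Each plate was normalised to 0.1 % DMSO and a positive kill control. EC50 was fitted from the curves and censored at the top concentration.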

BT-549 = details: 72 h
In short: as §3

MDA-MB-468 = details: 72 h
In short: as §3

BT-474 [8] = details: 72 h
In short: as §3

CAL-51 [9] = details: 72 h
In short: as §3

MCF-10A [10] = details: 72 h
Procedure: as §2

CAL-85-1 [11] = details: 72 h
In short: as §3

MCF-10A [12] = details: 72 h; remark: listed apart in the source
In short: as §3

CAL-85-1 [13] = details: 72 h; remark: listed apart in the source
Procedure: as §2

CAL-85-1 [14] = details: 72 h; remark: listed apart in the source
In short: (§4)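 To measure viability, fluorescence at 560/590 nm was read after 2.5 µl CellTiter-Blue had been added for 2 h at 37 °C. Cells from breast cancer lines had been seeded in 20 µl suspension onto 384-well plates pre-loaded with compound dissolved in 5 µl medium and kept for 72 h. EC50 comes from a fitted percent-inhibition dose-response curve censored at the highest concentration, after per-plate normalisation to vehicle and a positive kill control, Z'-factor checks, and removal of rows with zero drug sensitivity score.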

CAL-148 [15] = details: 72 h
In short: as §4

HDQ-P1 [16] = details: 72 h; remark: listed apart in the source
In short: as §4

MDA-MB-453 [17] = details: 72 h
In short: as §4

CAL-51 [18] = details: 72 h; remark: listed apart in the source
In short: as §4

BT-474 [19] = details: 72 h; remark: listed apart in the source
In short: as §4

DU-4475 [20] = details: 72 h
In short: as §4

HCC1937 = details: 72 h
In short: as §3

MDA-MB-231 = details: 72 h
In short: as §3

SK-BR-3 = details: 72 h
In short: as §3

MDA-MB-453 [21] = details: 72 h; remark: listed apart in the source
In short: as §3

Row | SMILES | normalised viability (CAL-85-1 [1]) | normalised viability (CAL-148 [2]) | normalised viability (HDQ-P1 [3]) | normalised viability (DU-4475 [4]) | normalised viability (MDA-MB-453 [5]) | normalised viability (CAL-51 [6]) | other results
1 | O=c1[nH]c(=O)n([C@H]2C[C@H](O)[C@@H](CO)O2)cc1F [Floxuridine] (10000 nM) | 39.3% | 31.9% | 93.9% | 56.2% | 32.2% | 15.5% | 
2 | O=C(c1ccc(OCCN2CCCCC2)cc1)c1c(-c2ccc(O)cc2)sc2cc(O)ccc12 [Raloxifene] (10000 nM) | 98.6% | 125% | 105% | 113% | 45.7% | 105% | 
3 | COc1cccc2c1C(=O)c1c(O)c3c(c(O)c1C2=O)C[C@@](O)(C(C)=O)C[C@@H]3O[C@H]1C[C@H](N)[C@H](O)[C@H](C)O1 [Daunorubicin] (1000 nM) | 12.2% | -0.25% | 16% | -1.24% | 11.6% | 1.88% | 
4 | Cn1cnc2c(F)c(Nc3ccc(Br)cc3F)c(C(=O)NOCCO)cc21 [MEK-162] (1000 nM) | 70.5% | 90.6% | 91.2% | -0.34% | 122% | 84.5% | 
5 | Cn1c(=O)c(F)c(Nc2ccc(I)cc2F)c2c(=O)n(C[C@@H](O)CO)cnc21 [TAK-733] (1000 nM) | 39.7% | 92.8% | 60% | 0.83% | 51.2% | 66% | 
6 | COC1=C2C[C@@H](C)C[C@H](OC)[C@H](O)[C@@H](C)/C=C(\C)[C@H](OC(N)=O)[C@@H](OC)/C=C\C=C(/C)C(=O)NC(=CC1=O)C2=O [Geldanamycin] (10000 nM) | 6.88% | 7.57% | 14.5% | -0.94% | 7.62% | 2.17% | 
7 | CC(=O)O[C@H]1C(=O)[C@@]2(C)[C@H]([C@H](OC(=O)c3ccccc3)[C@]3(O)C[C@H](OC(=O)[C@H](O)[C@@H](NC(=O)c4ccccc4)c4ccccc4)C(C)=C1C3(C)C)[C@]1(OC(C)=O)CO[C@@H]1C[C@@H]2O [Paclitaxel] (1000 nM) | 33.1% | 14.7% | 32.7% | 1.41% | 21% | 10.7% | 
8 | Cc1cc(C(C)Nc2ccccc2)c2nc(N3CCOCC3)cc(=O)n2c1 (stereo not drawn) [TGX-221] |  |  |  |  |  |  | EC50, CellTox Green (HDQ-P1 [7]): 1 nM; EC50, CellTiter-Glo (CAL-120): > 10 µM; EC50, CellTiter-Glo (BT-549): 0.947 µM; EC50, CellTiter-Glo (MDA-MB-468): 3560 nM; EC50, CellTiter-Glo (BT-474 [8]): 709 nM; EC50, CellTiter-Glo (CAL-51 [9]): 0.0228 µM
9 | CS(=O)(=O)OCCCCOS(C)(=O)=O [Busulfan] |  |  |  |  |  |  | EC50, CellTiter-Glo (BT-474 [8]): > 100000 nM
10 | CN1CCN(c2ccc3nc(-c4c(N)c5c(F)cccc5[nH]c4=O)[nH]c3c2)CC1 [Dovitinib] (10000 nM) | 87.1% | 88.5% | 96.4% | 96.7% | 79% | 108% | 
11 | Nc1nccc(-c2c(-c3ccc(F)cc3)ncn2C2CCCCC2)n1 |  |  |  |  |  |  | EC50, CellTox Green (MCF-10A [10]): 4.81 µM; EC50, CellTiter-Glo (CAL-85-1 [11]): 9.49 µM; EC50, CellTiter-Glo (MCF-10A [12]): 9.77 µM; EC50, CellTiter-Glo (MDA-MB-468): 213 nM; EC50, CellTiter-Glo (CAL-51 [9]): > 10 µM
12 | CCCC(CCC)C(=O)O [Valproic acid] |  |  |  |  |  |  | EC50, CellTiter-Glo (CAL-51 [9]): 441 µM
13 | CCCC(CCC)C(=O)O [Valproic acid] (10000 nM) | 86.8% | 91.5% | 125% | 82.9% | 106% | 91.4% | 
14 | C[C@@H]1C=C2C(=O)O[C@@H]3CC[C@H](C1)[C@]23O [Galiellalactone] |  |  |  |  |  |  | EC50, CellTox Green (CAL-85-1 [13]): 47.4 µM; EC50, CellTiter-Blue viability (CAL-85-1 [14]): 6.9 µM; EC50, CellTiter-Blue viability (CAL-148 [15]): 16.1 µM; EC50, CellTiter-Blue viability (HDQ-P1 [16]): 39.4 µM; EC50, CellTiter-Blue viability (MDA-MB-453 [17]): 7.21 µM; EC50, CellTiter-Blue viability (CAL-51 [18]): 48.9 µM; EC50, CellTiter-Blue viability (BT-474 [19]): 28.9 µM; EC50, CellTiter-Glo (CAL-85-1 [11]): 10.5 µM; EC50, CellTiter-Glo (BT-549): 17.7 µM; EC50, CellTiter-Glo (MDA-MB-468): 7120 nM; EC50, CellTiter-Glo (CAL-51 [9]): 2.32 µM
15 | COc1c(C)cnc(Cn2cnc3c(Cl)nc(N)nc32)c1C [BIIB021] (10000 nM) | 21.7% | 15.7% | 30.4% | -0.63% | 4.83% | 9.69% | 
16 | C[C@@]1(C(=O)Nc2ccc(F)nc2)CCCN1c1nc(Nc2cc(C3CC3)n[nH]2)c2cccn2n1 (10000 nM) | 30.6% | 49.1% | 7.47% | 3.48% | 75.3% | 6.06% | 
17 | CN1CCN(c2ccc3nc(-c4c(N)c5c(F)cccc5[nH]c4=O)[nH]c3c2)CC1 [Dovitinib] |  |  |  |  |  |  | EC50, CellTiter-Glo (CAL-120): > 10 µM
18 | COC1=CC(c2cc3ccccc3[nH]2)=N/C1=C\c1[nH]c(C)cc1C [Obatoclax] |  |  |  |  |  |  | EC50, CellTiter-Blue viability (CAL-85-1 [14]): 0.982 µM; EC50, CellTiter-Blue viability (CAL-148 [15]): 3.15 µM; EC50, CellTiter-Blue viability (HDQ-P1 [16]): 0.0956 µM; EC50, CellTiter-Blue viability (DU-4475 [20]): 6.65 µM; EC50, CellTiter-Blue viability (MDA-MB-453 [17]): 0.632 µM; EC50, CellTiter-Blue viability (CAL-51 [18]): 2.06 µM; EC50, CellTiter-Blue viability (BT-474 [19]): 0.124 µM; EC50, CellTiter-Glo (CAL-85-1 [11]): 0.126 µM; EC50, CellTiter-Glo (HCC1937): 153 nM; EC50, CellTiter-Glo (MDA-MB-231): 131 nM; EC50, CellTiter-Glo (BT-549): 3.6 µM; EC50, CellTiter-Glo (SK-BR-3): > 10 µM; EC50, CellTiter-Glo (MDA-MB-468): 664 nM; EC50, CellTiter-Glo (MDA-MB-453 [21]): 2620 nM; EC50, CellTiter-Glo (BT-474 [8]): 128 nM; EC50, CellTiter-Glo (CAL-51 [9]): 3.92 µM
19 | COc1ccc(C2=N[C@@H](c3ccc(Cl)cc3)[C@@H](c3ccc(Cl)cc3)N2C(=O)N2CCNC(=O)C2)c(OC(C)C)c1 [Nutlin-3] (10000 nM) | 86.6% | 57.3% | 111% | 36.1% | 90% | 53.3% | 

— the supplement of paper PMC4862054
